This is an account of results in patent EP1289507B1, “USE OF AN ALDOSTERONE ANTAGONIST FOR THE TREATMENT OR PROPHYLAXIS OF ALDOSTERONE-MEDIATED PATHOGENIC EFFECTS” (priority 2000, dated 2001).

Series [1] has as its system L-NAME/Angiotensin II/NaCl-treated rats. Nature of the series: L-NAME/Angiotensin II/NaCl model of cardiac and renal injury (14 days). The class given is in vivo, Male Wistar rats. On the procedure:
Animals. Male Wistar rats (n=44), weighing 200 to 225 grams, and obtained from Charles River Laboratories (Wilmington, MA) were used in the study. All animals were housed in a room lighted 12 hours per day at an ambient temperature of 22±1°C. Animals were allowed one week to recover after arrival and had free access to Purina Lab Chow 5001 (Ralston Purina Inc, St. Louis, MO) and tap water until the initiation of the experiment. After initiation of the protocols, animals in all groups were placed in individual metabolic cages, handled and weighed daily. Twenty-four hour fluid intake, food intake and urine output were measured daily. […] On day 14 of L-NAME treatment, animals were decapitated, trunk blood was collected into chilled tubes containing ethylene diamine tetraacetic acid and the heart and kidneys were removed, blotted dry and immediately weighed. […] Drugs. Eplerenone was supplied by G.D. Searle Pharmaceuticals (St. […] Dexamethasone was dissolved in sesame oil and administered as a single subcutaneous dose (12 μg/kg/day) every day. This dose of dexamethasone has been reported to maintain normal weight gain, glomerular filtration rate, and fasting plasma glucose and insulin levels in adrenalectomized rats. Stanton, B., Giebisch G et al. J. Clin. Invest 1985 75:1317-1326. The experiment was concluded on day 14 of L-NAME treatment. […] (Hou J et al. J. Clin. Invest. 1995 96:2469-2477. […] This lower dose induced lesions in stroke-prone spontaneously hypertensive rats. (Rocha R et al. […] Dexamethasone, aldosterone and L-NAME were purchased from Sigma Chemical Co. (St. Louis, MO). […] Surgical Procedure. […] Bilateral adrenalectomy was performed using a dorsolumbar approach, making separate incisions on each side. […] No post operative deaths occurred. Assays and Analyses. Systolic blood pressure was measured in awake animals by tail-cuff plethysmography using a Natsume KN-210 manometer and tachometer (Peninsula Laboratories Inc, Belmont, CA). Rats were warmed at 37°C for 10 minutes and allowed to rest quietly in a Lucite chamber before measurement of blood pressure. Urinary protein concentration was determined in urine collected on the last day of the experiment using the sulfosalicylic acid turbidity method. […] Plasma aldosterone concentration was determined using a standard radioimmunoassay-kit from Diagnostic Products Co. (Los Angeles, CA). Plasma renin activity ("PRA") was determined by radioimmunoassay detection of generated angiotensin I (DiaSorin Inc., Stillwater, MN). Histology. Hearts were stained with collagen specific dye Sirius red for determination of fibrosis as reported elsewhere. (Young M et al. Am. J. Physiol 1995 269:[…]-[…]). Interstitial collagen was determined using an automated image analyzer. The hearts were also stained with hematoxylin and eosin for light microscopic analysis. Two or three slices of different sections of the heart containing both right and left ventricle were analyzed from each animal. […] Glomerular damage, when present, was characterized as the presence of either segmental or global sclerosis with ischemic or thrombotic changes. Renal arterial and arteriolar damage was categorized as the presence of fibrinoid necrosis of the vascular wall. The renal arterial and arteriolar profiles presenting damage were counted and the number of injured vessels per section was divided by the number of glomeruli in the same section in order to normalize for the amount of tissue examined. […] Statistical analysis. Data were tested for normality using the Kolmogorov-Smimov test. Systolic blood pressure was analyzed using repeated measures-analysis of variance for time and treatment group. One-way analysis of variance was used for normally distributed data with one grouping variable. Post-hoc analysis was performed using Newman Keuls multiple-comparison test. Data that were not normally distributed were analyzed with the Kruskal-Wallis test. Subsequently, selected pairwise comparisons were made using the exact Wilcoxon test. […]

A short description of series [2]: Multiple dose tolerability and pharmacokinetic trials, Japan and Ex-Japan. The class given is in vivo, Japanese (Japan) and European (Ex-Japan) subjects. The conditions noted are these: Japanese male subjects, 400 mg daily for seven days, six subjects. The method, then: The Ex-Japan trials included (i) a single dose tolerability trial, and (ii) a multiple dose tolerability trial, and (iii) a food effect study.
Both single dose and multiple dose tolerability trials were conducted in Japan utilizing healthy male Japanese subjects. […] Six subjects who received the 100 mg dose also participated in the food effect treatment arm of the single dose tolerability trial.
No formal statistical analyses were performed and the actual derived data is presented for comparison purposes only.
A multiple-dose safety and pharmacokinetic study among Japanese subjects was conducted in Japan. This was a single-blind, randomized, placebo-controlled study. […] Serial blood and urine samples were collected throughout the study for measurement of pharmacokinetic, renal, and hormonal parameters after a single dose on Day 1 and after seven days of dosing.

In series [3] the test system is aortas of New Zealand white rabbits on normal or 1 % cholesterol chow. Put plainly: Endothelial function (isometric tension, superoxide generation) of aortas in diet induced atherosclerosis. It counts as in vivo. To be noted: for % NTG (peak relaxation to nitroglycerin) / %Ach (peak relaxation to acetylcholine): eplerenone 50 mg/kg twice daily; for %Ach (peak relaxation to acetylcholine): 6 weeks; for O2 counts: lucigenin chemiluminescence. On the procedure:
Methods: New Zealand white rabbits were randomized to four treatment groups. 32 Rabbits were placed on normal (NC) or 1 % cholesterol chow (HC) for a duration of 8 weeks. […] Rabbits were euthanized at the end of 8 weeks and the aortas extracted for isometric tension studies and estimation of superoxide (O2^-) generation in vessel segments by lucigenin chemiluminescence (250 µM). Vessels were preconstricted with phenylephrine (3 x 10^-7) to approximately 50% of peak constriction and dose responses to acetylcholine (Ach) and nitroglycerin (NTG) tested.

In series [4] the test system is Volume Expanded Hypertensive Rats. To be noted: averaged for 24 hours after three weeks.
Where [5] appears, read: end of experiment, Epl 100 mg/kg/day p.o., ALDO 40 µg/kg/day in adrenalectomized rats.

The structures appear in SMILES notation. Where two headings read alike, the source gives them in different places.

As for `COC(=O)[C@@H]1CC2=CC(=O)CC[C@]2(C)[C@@]23O[C@@H]2C[C@@]2(C)[C@@H](CC[C@@]24CCC(=O)O4)[C@H]13` [Eplerenone, Pregn-4-ene-7,21-dicarboxylic acid, 9,11-epoxy-17-hydroxy-3-oxo-, γ-lactone, methyl ester, (7α, 11α, 17β)-], the “cardiac injury (myocardial necrosis), histology” value in series [1] (Figures A-3B, A-4) was “markedly reduced”. Further, the HW/BW in series [1] (cardiac hypertrophy index, Epl 100 mg/kg/day p.o., ALDO 40 µg/kg/day in adrenalectomized rats) was 3.46 ± .05 mg/g. The cardiac hypertrophy entry in series [1] (compared to L-NAME/Angiotensin II/NaCl-treated rats) is “significantly reduced cardiac hypertrophy”. In series [1] (setting [5]), this compound had an HW of 1144 ± 4 mg and an SBP of 177 ± 8 mmHg. Besides, in series [1] (end of two-week treatment, Figure A-5), the “urinary protein excretion (24 hour), proteinuria” value is reported as “prevented the development of proteinuria”. Moreover, the “extent of hypertension observed at the end of the experiment” value in series [1] (eplerenone 100 mg/kg/day p.o., Figure A-1) is “not appreciably influenced”. The “reduction in renal arteriopathy damage compared to L-NAME/AngII/NaCl treated rats” value in series [1] (histopathologic scores, P=0.1 (not significant)) turned out to be 60%. The adverse events entry in series [2] is given as “mild fatigue on Day 2”. In series [3] (1 % cholesterol chow (HC)), the “% NTG (peak relaxation to nitroglycerin)” value was 112±4%, the “%Ach (peak relaxation to acetylcholine)” value was 82±6 % and the O2 counts is 1400±504 per mg of dry weight. In addition, in series [3] (normal chow (NC)), the “% NTG (peak relaxation to nitroglycerin)” value was 107±2%, the “%Ach (peak relaxation to acetylcholine)” value came to 97±3% and the O2 counts is 1110±373 per mg of dry weight. In series [4] (100 mg/kg s.c.), this compound showed an HR of 352 ± 4 beats/min and an SAP of 155 ± 7 mmHg. In series [4] (200 mg/kg s.c.), this compound came in with an HR of 339 ± 4 beats/min and an SAP of 174 ± 5 mmHg.
